One experiment deals with P. aeruginosa TL-2666. In words: Sensitivity test (agar dilution). Type of experiment: cell-based, Pseudomonas aeruginosa. Particulars: Pseudomonas aeruginosa, P. aeruginosa TL-2666. Put shortly:
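Standard Japanese agar dilution method. Drugs alone or combined were serially halved in Mueller Hinton agar, inoculated with overnight (37° C) cultures at about 10^6 CFU/ml. Values are MICs.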
In general terms: In agar dilution the substance is mixed into plates at graded concentrations.

Experiment [1] concerns 18 bacteria (27 standard strains). In words: Sensitivity test, combination effect over the standard strains. Type of experiment: cell-based. Particulars: in combination with compound 1, standard strains. On the procedure: The antibacterial activities were tested against various 18 bacteria (27 standard strains) which are representative bacteria caused clinically infectious disease (Staphylococcus aureus 3 strains, Staphylococcus epidermidis 1 strain, Micrococcus luteus 1 strain, Streptococcus pyogenes 1 strain, Enterococcus faecalis 1 strain, Enterococcus faecium 1 strain, Bacillus subtilis 1 strain, Escherichia coli 3 strains, Klebsiella pneumoniae 1 strain, Proteus mirabilis 1 strain, Proteus vulgaris 2 strains, Pseudomonas aeruginosa 3 strains, Serratia marcescens 2 strains, Enterobacter aerogenes 1 strain, Stenotrophomonas maltophilia 1 strain, Enterobacter cloacae 1 strain, Citrobacter freundii 1 strain, Moraxella catarrhalis 2 strains).
According to the standard method of Japan Chemotherapeutic Society (Chemotherapy, vol. […], p 76-79 (1981)) the test was carried out using the agar dilution method. After dissolving test samples in distilled water, agar medium containing the test samples was prepared in such a manner that the final concentration became twice serial dilution by pouring serially diluted combination drug solution or a single drug solution into agar medium. As agar medium was used Mueller Hinton Agar medium (MHA). Then, each strain was cultivated over night at 37° C. in an incubator and suspended in buffered saline solution with gelatin (BSG) in the concentration of about 10^6 CFU/ml. The suspension (about 5 μl) containing test strains was inoculated to the medium containing the test samples by Micro Planter.
When the sample is subjected to sensitivity test, this mixed solution was diluted by twice serial dilution method.
FIC index based on MIC value was calculated. […] Namely, when FIC index calculated by the following formula is equal or less than 1, the enhanced effect of the combination drug in said ratio is considered as positive. When FIC index is over 1, the enhanced effect of the combination drug in said ratio is considered as negative.
Formula of FIC index: FIC index=(MIC of Drug A in combination/MIC of Drug A alone)+(MIC of Drug B in combination/MIC of Drug B alone) N.C. in tables means being not calculated.

[2] abbreviates: TL2666, drug alone, read-out: MIC alone.

Like-named read-outs stand apart in the source and are kept apart here.

The MIC is the lowest concentration found to suppress growth. On to `C[C@@H](O)[C@H]1C(=O)N2C(C(=O)[O-])=C(SC3Cn4cnc[n+]4C3)[C@H](C)[C@H]12` (stereo partly drawn) [BIPM, biapenem], for which the minimal inhibitory concentration (MIC) in the experiment with P. aeruginosa TL-2666 (TL2666, Concomitant (BIPM:SM = 1:1), read-out: MIC concomitant) is 1 µg/mL; with P. aeruginosa TL-2666 (setting [2]) it was 1 µg/mL. Besides, the combination effect result in experiment [1] is listed as “the combination effect was recognized”.
As to `CC(C)(O/N=C(\C(=O)N[C@@H]1C(=O)N2C(C(=O)[O-])=C(C[n+]3ccccc3)CS[C@H]12)c1csc(N)n1)C(=O)O` [CAZ, ceftazidime], the MIC in the experiment on P. aeruginosa TL-2666 (TL2666, Concomitant (CAZ:SM = 1:1), read-out: MIC concomitant) was 8 µg/mL; with P. aeruginosa TL-2666 (setting [2]) it was 0.5 µg/mL. The combination effect entry in experiment [1] was “antagonism was recognized”.
On to `C[C@@H](O)[C@H]1C(=O)N2C(C(=O)O)=C(S[C@@H]3CN[C@H](CNS(N)(=O)=O)C3)[C@H](C)[C@H]12` [DRPM, doripenem], for which the MIC in the experiment on P. aeruginosa TL-2666 (TL2666, Concomitant (DRPM:SM = 1:1), read-out: MIC concomitant) was 1 µg/mL; in the experiment on P. aeruginosa TL-2666 (setting [2]), 1 µg/mL. The combination effect entry in experiment [1] is reported as “the combination effect was recognized”.
Consider `CC(=N)N1CC[C@H](SC2=C(C(=O)O)N3C(=O)[C@H]([C@@H](C)O)[C@H]3C2)C1` [PAPM, panipenem], for which the MIC in the experiment on P. aeruginosa TL-2666 (TL2666, Concomitant (PAPM:SM = 1:1), read-out: MIC concomitant) stood at 8 µg/mL; in the experiment on P. aeruginosa TL-2666 (setting [2]) it was 8 µg/mL. For the same molecule, the combination effect entry in experiment [1] is given as “the combination effect was recognized”.
`CCN1CCN(C(=O)N[C@@H](C(=O)N[C@@H]2C(=O)N3[C@@H]2SC(C)(C)[C@@H]3C(=O)O)c2ccccc2)C(=O)C1=O` [PIPC, piperacillin]: the minimum inhibitory concentration (MIC) in the experiment on P. aeruginosa TL-2666 (TL2666, Concomitant (PIPC:SM = 1:1), read-out: MIC concomitant) worked out at 16 µg/mL; with P. aeruginosa TL-2666 (setting [2]) it was 1 µg/mL. The combination effect result in experiment [1] is recorded as “antagonism was recognized”.
